Measured values taken from patent publication EP4711367A1, “PYRAZOLOPYRAZINE COMPOUND AND METHOD FOR PREPARING CRYSTAL FORM THEREOF” (CMS Research & Development Pte. Ltd., priority 2023, dated 2024).

Assays:
TYK2(h) = biological target: T1, TYK2(h) (Homo sapiens, UniProt P29597); test: In vitro activity test of TYK2 kinase ([γ-33P]-ATP filter assay, Eurofins); type: biochemical
T1 construct: purchased Eurofins (UK)
Description: Recombinant human JAK1, JAK2, JAK3, and Tyk2 proteases, along with major instruments and reagents, were provided by Eurofins in the UK. JAK2, JAK3, and TYK2 were diluted with: 20 mM 3-(N-morpholino)propanesulfonic acid (MOPS), 1 mM EDTA, 0.01% Brij-35.5% glycerol, 0.1% β-mercaptoethanol, 1 mg/mL BSA; JAK1 was diluted with: 20 mM TRIS, 0.2 mM EDTA, 0.1% β-mercaptoethanol, 0.01% Brij-35.5% glycerol. The compound of formula (I) was prepared as a 100% DMSO solution and diluted to 50 times the final assay concentration. The test compound was subjected to a 3-fold serial dilution, with final concentrations ranging from 10 µM to 0.001 µM across 9 concentrations, and the DMSO content in the detection reaction was 2%. The working stock solution of this compound was added as the first component of the reaction to the assay wells, followed by the addition of the remaining components according to the protocol detailed below. TYK2(h) was incubated with 8 mM MOPS pH 7.0, 0.2 mM EDTA, 250 µM GGMEDIYFEFMGGKKK, 10 mM magnesium acetate, and [γ-^33P]-ATP (activity and concentration adjusted as needed). The reaction was initiated by adding the Mg/ATP mixture and incubated at room temperature for 40 minutes, then terminated by adding 0.5% phosphoric acid. […] The IC50 results were analyzed using XLFIT5 (205 formula) from IDBS, as detailed in Table 12. […]

[1] = system: IL-23-induced epidermal hyperplasia model of the mouse ear pinna; test: Pharmacodynamic test of psoriasis model in mice (IL-23 injected into the ear pinna); type: in vivo, C57BL/6 mouse; conditions: for Ear thickness (mm)/day: right ear
Description: Objective: The purpose of this experiment is to evaluate the preventive and therapeutic effects of the test substance on IL-23-induced psoriasis-like skin lesions in mice, which were established by intradermal injection of IL-23 into the mouse ear pinna.
Methods: After the acclimation period, 50 mice were divided into 5 groups of 10 each by Excel complete randomization, namely: vehicle (0.5% MC & 0.5% Tween 80) control group, model group, and compound of formula (I) (10, 20, 50 mg/kg) groups. Except for the vehicle control group, the remaining groups were intradermally injected with IL-23 (3 µg/10 µL/mouse/day, QD) in the right ear for 8 consecutive days (D1 to D8), while the control group animals were intradermally injected with an equal volume of normal saline solution (10 µL/mouse/day, QD) in the right ear for 8 consecutive days (D1 to D8). During the modeling period, the vehicle or test drug was orally administered twice daily (Bid) at 6-hour intervals for 8 consecutive days (D1 to D8). During the administration period, the body weight of the animals was monitored every two days. On D1, D3, D5, D7 (all before IL-23 injection), and D9, the thickness of the right ear of the mice was measured, and the appearance of the ear pinna was scored. At the end of the experiment (Day 10), the modeled ear was excised, and an ear piece was punched along the ear pinna edge using an 8 mm punch and weighed. The punched right ear piece was fixed with formalin and subjected to histopathological examination (H&E) staining.

[2] = 10 mg/kg oral gavage twice daily for 8 days, day 1
[3] = 10 mg/kg oral gavage twice daily for 8 days, day 3
[4] = 10 mg/kg oral gavage twice daily for 8 days, day 5
[5] = 10 mg/kg oral gavage twice daily for 8 days, day 7
[6] = 10 mg/kg oral gavage twice daily for 8 days, day 9
[7] = 20 mg/kg oral gavage twice daily for 8 days, day 1
[8] = 20 mg/kg oral gavage twice daily for 8 days, day 3
[9] = 20 mg/kg oral gavage twice daily for 8 days, day 5
[10] = 20 mg/kg oral gavage twice daily for 8 days, day 7
[11] = 20 mg/kg oral gavage twice daily for 8 days, day 9
[12] = 50 mg/kg oral gavage twice daily for 8 days, day 1
[13] = 50 mg/kg oral gavage twice daily for 8 days, day 3
[14] = 50 mg/kg oral gavage twice daily for 8 days, day 5
[15] = 50 mg/kg oral gavage twice daily for 8 days, day 7
[16] = 50 mg/kg oral gavage twice daily for 8 days, day 9
[17] = 10, 20, 50 mg/kg oral gavage twice daily for 8 consecutive days

T1 sequence (P29597 whole entry): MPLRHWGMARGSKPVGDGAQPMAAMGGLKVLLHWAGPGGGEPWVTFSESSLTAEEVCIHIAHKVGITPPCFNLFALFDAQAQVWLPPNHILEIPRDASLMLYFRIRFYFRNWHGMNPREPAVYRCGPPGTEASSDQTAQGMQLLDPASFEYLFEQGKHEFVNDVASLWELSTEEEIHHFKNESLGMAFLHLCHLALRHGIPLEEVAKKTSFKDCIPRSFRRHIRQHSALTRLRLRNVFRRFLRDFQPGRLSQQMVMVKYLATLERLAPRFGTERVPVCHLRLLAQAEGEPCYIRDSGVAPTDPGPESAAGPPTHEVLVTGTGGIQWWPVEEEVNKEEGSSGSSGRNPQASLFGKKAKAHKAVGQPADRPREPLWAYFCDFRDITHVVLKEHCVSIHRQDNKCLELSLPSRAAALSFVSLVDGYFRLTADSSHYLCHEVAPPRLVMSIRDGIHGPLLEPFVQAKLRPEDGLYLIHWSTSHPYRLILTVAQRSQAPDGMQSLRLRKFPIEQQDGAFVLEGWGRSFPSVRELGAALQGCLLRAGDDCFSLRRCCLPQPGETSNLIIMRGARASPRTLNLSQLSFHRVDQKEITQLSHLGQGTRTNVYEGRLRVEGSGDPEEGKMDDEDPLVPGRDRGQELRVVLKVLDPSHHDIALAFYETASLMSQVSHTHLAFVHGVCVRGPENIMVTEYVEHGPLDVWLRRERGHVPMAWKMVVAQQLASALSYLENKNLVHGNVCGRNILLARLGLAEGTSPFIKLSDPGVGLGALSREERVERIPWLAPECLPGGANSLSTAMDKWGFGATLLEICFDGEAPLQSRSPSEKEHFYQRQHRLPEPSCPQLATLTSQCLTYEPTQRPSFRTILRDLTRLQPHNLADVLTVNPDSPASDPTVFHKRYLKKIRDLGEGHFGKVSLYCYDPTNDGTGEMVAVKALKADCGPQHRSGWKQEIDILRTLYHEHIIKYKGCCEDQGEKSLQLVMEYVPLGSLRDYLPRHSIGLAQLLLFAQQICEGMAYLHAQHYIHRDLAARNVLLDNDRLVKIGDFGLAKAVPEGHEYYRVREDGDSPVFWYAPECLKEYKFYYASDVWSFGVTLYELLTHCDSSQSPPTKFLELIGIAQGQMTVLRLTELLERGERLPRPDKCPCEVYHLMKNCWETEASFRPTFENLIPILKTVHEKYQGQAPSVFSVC

Q: How did the IC50 (TYK2(h)) turn out when `Cn1cc(-c2cn3nccc3c(-c3cnn([C@]4(CC#N)CC5(C[C@H](C#N)C5)C4)c3)n2)cn1` (stereo partly shown) [Compound of formula (I)] was run?
A: The IC50 was 0.9 nM.

Q: And the “selective inhibition against TYK2 and/or JAK1 and/or JAK2” value (TYK2(h); in vitro activity tests for the four kinase subtypes JAK1, JAK2, JAK3, and TYK2)?
A: The value was “good selective inhibition”.

Q: What about the “Body weight (g)/day” value [1, 2] of the same molecule?
A: Its value is 19.77 ± 0.59 g.

Q: What about the Ear comprehensive score/day [1, 2] of the same molecule?
A: The Ear comprehensive score/day was 0.00 ± 0.00.

Q: And the “Body weight (g)/day” value [1, 3]?
A: The value was 19.69 ± 0.57 g.

Q: And the Ear comprehensive score/day [1, 3]?
A: Its Ear comprehensive score/day is 0.00 ± 0.00.

Q: And the “Body weight (g)/day” value [1, 4]?
A: The value was 20.02 ± 0.77 g.

Q: And the Ear comprehensive score/day [1, 4]?
A: The Ear comprehensive score/day was 0.60 ± 0.52.

Q: What about the “Body weight (g)/day” value [1, 5] of the same molecule?
A: The value was 19.69 ± 0.63 g.

Q: And the Ear comprehensive score/day [1, 5]?
A: The Ear comprehensive score/day was 1.70 ± 1.06.

Q: What about the “Body weight (g)/day” value [1, 6] of the same molecule?
A: The value was 20.04 ± 0.72 g.

Q: And the Ear comprehensive score/day [1, 6]?
A: The Ear comprehensive score/day was 2.60 ± 1.43.

Q: What about the “Ear thickness (mm)/day” value [1, 6] of the same molecule?
A: The value was 0.430 ± 0.048 mm.

Q: What about the “Body weight (g)/day” value [1, 7] of the same molecule?
A: The value was 19.77 ± 0.54 g.

Q: And the Ear comprehensive score/day [1, 7]?
A: Its Ear comprehensive score/day is 0.00 ± 0.00.

Q: What about the “Body weight (g)/day” value [1, 8] of the same molecule?
A: Its value is 19.85 ± 0.78 g.

Q: And the Ear comprehensive score/day [1, 8]?
A: The Ear comprehensive score/day was 0.00 ± 0.00.

Q: What about the “Body weight (g)/day” value [1, 9] of the same molecule?
A: The value was 20.13 ± 0.78 g.

Q: What about the Ear comprehensive score/day [1, 9] of the same molecule?
A: The Ear comprehensive score/day was 0.60 ± 0.70.

Q: And the “Body weight (g)/day” value [1, 10]?
A: Its value is 19.80 ± 0.92 g.

Q: And the Ear comprehensive score/day [1, 10]?
A: Its Ear comprehensive score/day is 1.40 ± 0.52.

Q: And the “Body weight (g)/day” value [1, 11]?
A: The value was 20.27 ± 0.90 g.

Q: What about the Ear comprehensive score/day [1, 11] of the same molecule?
A: The Ear comprehensive score/day was 1.50 ± 0.71.

Q: What about the “Ear thickness (mm)/day” value [1, 7] of the same molecule?
A: Its value is 0.190 ± 0.009 mm.

Q: And the “Ear thickness (mm)/day” value [1, 10]?
A: The value was 0.350 ± 0.025 mm.

Q: And the “Body weight (g)/day” value [1, 12]?
A: Its value is 19.78 ± 0.53 g.

Q: And the Ear comprehensive score/day [1, 12]?
A: The Ear comprehensive score/day was 0.00 ± 0.00.

Q: And the “Body weight (g)/day” value [1, 13]?
A: The value was 19.85 ± 0.68 g.

Q: And the Ear comprehensive score/day [1, 13]?
A: Its Ear comprehensive score/day is 0.00 ± 0.00.

Q: What about the “Body weight (g)/day” value [1, 14] of the same molecule?
A: Its value is 20.41 ± 0.70 g.

Q: What about the Ear comprehensive score/day [1, 14] of the same molecule?
A: The Ear comprehensive score/day was 0.10 ± 0.32.

Q: And the “Body weight (g)/day” value [1, 15]?
A: The value was 20.15 ± 0.56 g.

Q: What about the Ear comprehensive score/day [1, 15] of the same molecule?
A: The Ear comprehensive score/day was 1.40 ± 0.70.

Q: And the “Body weight (g)/day” value [1, 16]?
A: The value was 20.28 ± 0.76 g.

Q: And the Ear comprehensive score/day [1, 16]?
A: Its Ear comprehensive score/day is 1.00 ± 0.47.

Q: And the “effect on the body weight of the animals (in words)” value [1, 17]?
A: Its value is “no significant effect”.

Q: And the “effect on the weight of the modeled ear (in words)” value [1, 17]?
A: The value was “significantly reduce”.

Q: What about the “effect on the total score of the modeled ear (in words)” value ([1]; 10, 20, 50 mg/kg oral gavage twice daily for 8 consecutive days, from D5 to D9) of the same molecule?
A: The value was “significantly reduce”.

Q: And the “effect on the thickness of the modeled ear (in words)” value ([1]; dose of 50 mg/kg, as early as D3)?
A: The value was “significantly reduces”.

Q: And the “effect on the thickness of the modeled ear (in words)” value ([1]; doses of 10 and 20 mg/kg, starting from day 5)?
A: The value was “significantly reduces”.
